Measured values published in US5362634A, “Process for producing A83543 compounds” (DowElanco, priority 1991, dated 1994).

How the values were obtained:
[1] = test system: sheep; experiment: Toxicity to the host animal, sheep systemic test; assay type: in vivo; set-up: key: N: none
Procedure: (§1) Tests are carried out in sheep using the test method described supra in the Guinea Pig Test description. Test compound is administered by intraperitoneal or intravenous injection or intraruminally; blood samples are drawn at 24 hours in these tests.

[2] = test system: Haemonchus contortus; experiment: In vitro test against sheep intestinal nematode; conditions: read-out: worms killed
Excerpt: In in vitro tests against the sheep intestinal nematode Haemonchus contortus, A83543A killed 30% of the worms at a concentration of 100 ppm.

[3] = test system: blow fly larvae (LBF); experiment: In vitro efficacy, exposure of LBF to chemically added serum samples
Excerpt: ^1 Percent insect mortality following 24 to 48 hrs. in vitro exposure
to chemically added serum samples

[4] = test system: blow fly larvae (LBF); experiment: Guinea pig systemic test, blow fly larvae; assay type: in vivo
Procedure: (§2) Adult guinea pigs are used in this test system. The compounds to be tested are dissolved in aqueous polyvinyl pyrrolidone or in polyethylene glycol 200, and an appropriate amount of the solution is administered either orally or by intraperitoneal injection.
(§3) Blood is drawn from the guinea pigs at 30 minutes except as noted, and the samples of blood are centrifuged. Dental wicks are saturated with the blood serum, and then exposed in Petri dishes to adult stable flies; blow fly larvae are exposed in test tubes. After 24 and 48 hours, the insects are examined, and the number of dead are counted. The results of the tests are recorded as the percent of the insects which are killed.

[5] = test system: adult stable fly (ASF); experiment: Sheep systemic test, adult stable fly; assay type: in vivo; conditions: Stomoxys calcitrans, 24 h
Procedure: as §3, §1

[6] = test system: black blow fly larvae; experiment: In vitro efficacy against black blow fly larvae; conditions: Phormia regina
Excerpt: Tables XIX-XXI summarize in vitro studies with A83543A and A83543D.

[7] = test system: CBW (cotton bollworm) ova; experiment: Topical treatment of CBW eggs (ova); assay type: in vivo, Heliothis zea; conditions: 144 h, 6 days
Procedure: (§4) Each test compound was formulated by dissolving the compound in an acetone/alcohol (1:1) mixture containing 23 g of "Toximul R" (sulfonate/nonionic emulsifier blend) and 13 g of "Toximul S" (sulfonate/nonionic emulsifier blend) per liter. These mixtures were then diluted with water to give the indicated concentrations.
(§5) Additional insects were evaluated using similar formulations and evaluation procedures, with the exceptions noted.
(§6) After standard exposure periods, percent mortality was evaluated. The following abbreviations are used:
(§7) ^b Mean of two replicates tested
^e Eggs topically treated with A83543A and held until control eggs

[8] = test system: neonate CBW (cotton bollworm) larvae; experiment: Surface-treated diet test against neonate CBW larvae; assay type: in vivo, Heliothis zea
Procedure: as §4, §5, §6, §7
^d Diet is surface treated with A83543A, allowed to dry and infested

[9] = test system: guinea pigs; experiment: Toxicity to the host animal, guinea pig systemic test; assay type: in vivo; set-up: key: N: none
Procedure: as §2, §3

[10] = test system: neonate CBW (cotton bollworm) larvae; experiment: Percent control of neonate CBW larvae by A83543 components, topical pipet method; assay type: in vivo, Heliothis zea; conditions: topical, 24 h, read-out: Percent Control
Procedure: as §4, §5, §6
^1 Treatments with the same letter in parentheses are similar at the
^2 Topical pipet method with 20 larve/replicate and 4 replicates; one
day between treatment and observation.

[11] = test system: SM (twospotted spider mite); experiment: Greenhouse test against SM; assay type: in vivo; conditions: Tetranychus urticae
Procedure: as §4
Two-spotted spider mites (Tetranychus urticae Koch) and cotton or melon aphids (Aphis gossypii Glover) were introduced on squash cotyledons and allowed to establish on both leaf surfaces. Other plants in the same treatment pot were left uninfested. The leaves were then sprayed with 5 mL of test solution using a DeVilbiss atomizing sprayer at 10 psi. Both surfaces of the leaves were covered until runoff and then allowed to dry for one hour. Two uninfested leaves were then excised and placed into a Petri dish containing Southern armyworm (Spodoptera eridania Cramer).
(§8) After standard exposure periods, percent mortality was evaluated.

[12] = test system: CLH (corn leafhopper); experiment: Greenhouse test against CLH; assay type: in vivo, Dalbulus maidis
Procedure: as §4, §5, §8

CC[C@H]1CCC[C@H](O[C@H]2CC[C@H](N(C)C)[C@@H](C)O2)[C@@H](C)C(=O)C2=C[C@@H]3[C@@H](C=C[C@@H]4C[C@@H](O[C@@H]5O[C@@H](C)[C@H](OC)[C@@H](OC)[C@H]5OC)C[C@@H]34)[C@@H]2CC(=O)O1 [A83543A]
80%: inhibition at 50 ppm ([11]; bushbean, 50 ppm)
90%: Percent insect mortality ([3]; 0.625 ppm, 48 hr) | LBF activity (% mortality) ([4]; 30 mg/kg IP) | % Activity LBF ([4]; 30 mg/kg IP, bled 30 min) | mortality at 25 mg/kg ([5]; 2 × 25 mg/kg IR) | inhibition at 200 ppm ([12]; 200 ppm)
10%: mortality at 1 mg/kg ([5]; 1.0 mg/kg IV) | inhibition at 12.5 ppm ([11]; bushbean, 12.5 ppm)
50%: Percent insect mortality ([3]; 0.312 ppm, 48 hr) | % Activity LBF ([4]; 30 mg/kg IP, bled 5 hr)
30%: killing at 100 ppm [2] | % Activity LBF ([4]; 30 mg/kg IP, bled 24 hr) | mortality at 30 mg/kg ([5]; 30 mg/kg IR) | inhibition at 100 ppm ([7]; 100.00 ppm) | inhibition at 1 ppm ([8]; 96 h, 4 days) | inhibition at 25 ppm ([11]; bushbean, 25 ppm) | inhibition at 100 ppm ([12]; 100 ppm)
0%: LBF activity (% mortality) ([4]; 10 mg/kg IP, 30 min) | % Activity LBF ([4]; 10 mg/kg IP, bled 30 min) | % Activity LBF ([4]; 10 mg/kg IP, bled 5 hr) | % Activity LBF ([4]; 10 mg/kg IP, bled 24 hr) | LBF activity (% mortality) ([4]; 20 mg/kg IP, 30 min) | % Activity LBF ([4]; 20 mg/kg IP, bled 30 min) | % Activity LBF ([4]; 20 mg/kg IP, bled 5 hr) | % Activity LBF ([4]; 20 mg/kg IP, bled 24 hr) | % Activity LBF ([4]; 50 mg/kg oral, bled 24 hr) | mortality at 10 mg/kg ([5]; 10 mg/kg IP) | mortality at 10 mg/kg ([5]; 10 mg/kg IR) | mortality at 30 mg/kg ([5]; 30 mg/kg IP) | inhibition at 10 ppm ([7]; 10.00 ppm) | inhibition at 50 ppm ([7]; 50.00 ppm) | inhibition at 6.25 ppm ([11]; bushbean, 6.25 ppm) | inhibition at 31.25 ppm ([11]; squash, 31.25 ppm) | inhibition at 50 ppm ([12]; 50 ppm)
20%: inhibition at 62.5 ppm ([11]; squash, 62.5 ppm)
100%: Percent insect mortality ([3]; 1.25 ppm, 24 hr) | Percent insect mortality ([3]; 1.25 ppm, 48 hr) | Percent insect mortality ([3]; 2.5 ppm, 24 hr) | Percent insect mortality ([3]; 2.5 ppm, 48 hr) | Percent insect mortality ([3]; 5 ppm, 24 hr) | Percent insect mortality ([3]; 5 ppm, 48 hr) | Percent insect mortality ([3]; 10 ppm, 24 hr) | Percent insect mortality ([3]; 10 ppm, 48 hr) | LBF activity (% mortality) ([4]; 50 mg/kg IP, 30 min) | % Activity LBF ([4]; 50 mg/kg IP, bled 30 min) | LBF activity (% mortality) ([4]; 50 mg/kg OR (oral), 30 min) | % Activity LBF ([4]; 50 mg/kg oral, bled 5 hr) | mortality at 2 ppm ([6]; 2 ppm) | mortality at 5 ppm ([6]; 5 ppm) | mortality at 10 ppm ([6]; 10 ppm) | mortality at 25 ppm ([6]; 25 ppm) | mortality at 50 ppm ([6]; 50 ppm) | mortality at 100 ppm ([6]; 100 ppm) | inhibition at 5 ppm ([8]; 72 h, 3 days) | inhibition at 10 ppm ([8]; 72 h, 3 days) | inhibition at 50 ppm ([8]; 72 h, 3 days) | inhibition at 5 ppm ([8]; 96 h, 4 days) | inhibition at 10 ppm ([8]; 96 h, 4 days) | inhibition at 50 ppm ([8]; 96 h, 4 days) | inhibition at 100 ppm ([8]; 96 h, 4 days, 100.00 ppm) | mortality at 1 ppm [10] | mortality at 5 ppm [10] | mortality at 10 ppm [10] | inhibition at 100 ppm ([11]; bushbean, 100 ppm)
55%: mortality at 0.5 ppm [10]
40%: inhibition at 125 ppm ([11]; squash, 125 ppm)
45%: inhibition at 1 ppm ([8]; 72 h, 3 days)
95%: % Activity LBF ([4]; 50 mg/kg IP, bled 5 hr) | mortality at 1 ppm ([6]; 1 ppm)
15%: inhibition at 0.5 ppm ([8]; 72 h, 3 days, 0.50 ppm)
70%: mortality at 50 mg/kg ([5]; 50 mg/kg IR) | inhibition at 250 ppm ([11]; squash, 250 ppm)
N: Tox ([1]; 1.0 mg/kg IV) | Tox ([1]; 10 mg/kg IP) | Tox ([1]; 10 mg/kg IR) | Tox ([1]; 30 mg/kg IP) | Tox ([1]; 30 mg/kg IR) | Tox ([1]; 50 mg/kg IP) | Tox ([1]; 50 mg/kg IR) | Tox ([1]; 2 × 25 mg/kg IR) | Tox ([9]; 10 mg/kg IP) | Tox ([9]; 20 mg/kg IP) | Tox ([9]; 30 mg/kg IP) | Tox ([9]; 50 mg/kg IP) | Tox ([9]; 50 mg/kg OR (oral))
25%: Percent insect mortality ([3]; 0.312 ppm, 24 hr) | % Activity LBF ([4]; 50 mg/kg IP, bled 24 hr) | mortality at 0.25 ppm ([6]; 0.25 ppm)
60%: Percent insect mortality ([3]; 0.625 ppm, 24 hr) | mortality at 0.5 ppm ([6]; 0.5 ppm)
